Source: US20140051679A1, “KINASE INHIBITORS AND METHOD OF TREATING CANCER WITH SAME” (UNIVERISTY HEALTH NETWORKS, priority 2011, published 2014)

How the values were obtained:
[1] = test system: HCT116 colon cancer cells; test: Cell growth inhibition, Sulforhodamine B assay, HCT116; format: cell-based; conditions: Homo sapiens, HCT-116, 120 h, 5 days culture, SRB assay, read-out: Cell Line GI50 Range HCT116
[2] = test system: HT29 colon cancer cells; test: Cell growth inhibition, Sulforhodamine B assay, HT29; format: cell-based; conditions: Homo sapiens, HT-29, 120 h, 5 days culture, SRB assay, read-out: Cell Line GI50 Range HT29
[3] = test system: OVCAR-3 ovarian cancer cells; test: Cell growth inhibition, Sulforhodamine B assay, OVCAR-3; format: cell-based; conditions: Homo sapiens, 120 h, 5 days culture, SRB assay, read-out: Cell Line GI50 Range OVCAR-3
[4] = test system: MDA-MB-468 breast cancer cells; test: Cell growth inhibition, Sulforhodamine B assay, MDA-MB-468; format: cell-based; conditions: Homo sapiens, 120 h, 5 days culture, SRB assay, read-out: Cell Line GI50 Range MDA-MB-468
[5] = test system: MDA-MB-231 breast cancer cells; test: Cell growth inhibition, Sulforhodamine B assay, MDA-MB-231; format: cell-based; conditions: Homo sapiens, 120 h, 5 days culture, SRB assay, read-out: Cell Line GI50 Range MDA-MB-231
[6] = biological target: T1, human TTK (Homo sapiens, UniProt P33981); test: TTK inhibition assay (indirect ELISA); format: biochemical; conditions: GST-TTK 0.68 nM, 16 μM ATP; read-out: IC50 Ranges TTK
T1 construct: amino terminal GST fusion of full length human TTK; purchased Invitrogen
T1 sequence (P33981 1-857): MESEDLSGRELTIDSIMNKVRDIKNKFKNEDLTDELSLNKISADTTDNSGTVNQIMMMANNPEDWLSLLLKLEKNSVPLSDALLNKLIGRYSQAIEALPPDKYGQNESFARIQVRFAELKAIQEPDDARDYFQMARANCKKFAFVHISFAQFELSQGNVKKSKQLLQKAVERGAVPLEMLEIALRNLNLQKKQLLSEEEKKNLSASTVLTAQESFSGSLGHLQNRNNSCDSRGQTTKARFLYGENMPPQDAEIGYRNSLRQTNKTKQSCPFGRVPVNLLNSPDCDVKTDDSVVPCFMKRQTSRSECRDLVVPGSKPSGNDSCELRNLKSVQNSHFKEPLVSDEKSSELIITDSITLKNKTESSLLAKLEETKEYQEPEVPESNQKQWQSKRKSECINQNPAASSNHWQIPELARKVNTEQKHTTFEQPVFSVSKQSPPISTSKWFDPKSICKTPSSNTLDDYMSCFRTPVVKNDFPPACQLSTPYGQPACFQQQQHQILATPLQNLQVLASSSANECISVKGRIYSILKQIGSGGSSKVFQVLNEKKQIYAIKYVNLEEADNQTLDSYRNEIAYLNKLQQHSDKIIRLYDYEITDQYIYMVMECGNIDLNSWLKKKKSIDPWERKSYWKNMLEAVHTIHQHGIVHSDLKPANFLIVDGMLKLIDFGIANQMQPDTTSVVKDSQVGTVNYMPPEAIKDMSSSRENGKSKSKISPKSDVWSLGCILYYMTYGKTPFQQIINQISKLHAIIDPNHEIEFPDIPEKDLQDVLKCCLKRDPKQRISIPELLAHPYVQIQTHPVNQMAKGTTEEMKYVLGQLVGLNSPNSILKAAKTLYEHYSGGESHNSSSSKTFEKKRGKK

[7] = biological target: T2, human PLK4 (Homo sapiens, UniProt O00444); test: PLK4 inhibition assay (indirect ELISA); format: biochemical; conditions: GST-PLK4 4 nM, 15 μM ATP; read-out: IC50 Ranges PLK4
T2 construct: amino terminal GST fusion of residues 1-391 of human PLK4; made in house; host or cells: E. coli
T2 sequence (O00444 1-391): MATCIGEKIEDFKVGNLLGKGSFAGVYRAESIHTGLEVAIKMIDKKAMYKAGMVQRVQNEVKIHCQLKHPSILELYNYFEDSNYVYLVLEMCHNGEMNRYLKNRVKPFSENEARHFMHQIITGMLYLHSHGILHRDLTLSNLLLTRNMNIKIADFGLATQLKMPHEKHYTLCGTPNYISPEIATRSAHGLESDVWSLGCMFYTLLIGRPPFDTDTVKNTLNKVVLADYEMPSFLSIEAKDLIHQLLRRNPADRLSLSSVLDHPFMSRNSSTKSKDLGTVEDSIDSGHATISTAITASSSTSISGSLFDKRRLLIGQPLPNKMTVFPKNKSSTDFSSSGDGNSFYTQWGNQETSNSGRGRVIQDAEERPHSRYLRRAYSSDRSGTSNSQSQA
How it was run: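 Dephosphorylated GST-tagged human PLK4 (residues 1-391, E. coli), 4 nM, preincubated 15 min with compound, then reacted 30 min with 15 μM ATP on MBP-coated plates (50 mM HEPES pH 7.5, 10 mM MgCl2, 0.01% Brij 35). Phospho-MBP detected by antibody ELISA at 450 nm. Tested at 10 μM or 10-point titrations; IC50 from 4-parameter logistic fit.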

[8] = biological target: T3, Aurora B (Homo sapiens, UniProt Q96GD4); test: Aurora B inhibition assay (Z-Lyte); format: biochemical; conditions: 28 nM Aurora B, 128 μM ATP; read-out: IC50 Ranges Aurora B
T3 construct: purchased Invitrogen PV3970
T3 sequence (Q96GD4 whole entry): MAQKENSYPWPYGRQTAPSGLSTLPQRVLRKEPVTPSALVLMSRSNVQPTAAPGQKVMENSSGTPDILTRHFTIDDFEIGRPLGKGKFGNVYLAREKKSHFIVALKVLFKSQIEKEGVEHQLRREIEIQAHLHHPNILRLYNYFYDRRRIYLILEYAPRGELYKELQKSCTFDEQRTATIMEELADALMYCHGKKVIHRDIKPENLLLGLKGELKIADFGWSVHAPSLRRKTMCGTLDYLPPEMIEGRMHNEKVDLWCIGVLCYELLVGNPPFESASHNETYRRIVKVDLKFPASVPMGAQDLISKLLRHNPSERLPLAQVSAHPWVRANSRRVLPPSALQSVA
Description: Aurora B inhibition was determined using the Z-Lyte assay kit from Invitrogen. The assay was performed using the recommended manufacturer's instructions with 128 μM ATP and 28 nM Aurora B (Invitrogen cat #PV3970). The % inhibition values were determined according to the manufacturer's directions and IC50 values were obtained using a non-linear 4 point logistic curve fit (XLfit4, IDBS)

| GI50 [1] | GI50 [2] | GI50 [3] | GI50 [4] | GI50 [5] | IC50 [6] | IC50 [7] | IC50 [8] | Structure (SMILES) |
| --- | --- | --- | --- | --- | --- | --- | --- | --- |
| ≤ 5 µM | ≤ 5 µM | 20 to 50 µM | ≤ 5 µM | 5 to 20 µM | ≤ 5 µM | ≤ 5 µM | – | CN1CCC(Oc2ccc(-c3n[nH]c4ccc(C(=O)NCC(C)(C)N5CCOCC5)cc34)cc2)CC1 [Example A74, N-(2-methyl-2-morpholinopropyl)-3-(4-((1-methylpiperidin-4-yl)oxy)phenyl)-1H-indazole-5-carboxamide] |
| ≤ 5 µM | ≤ 5 µM | 5 to 20 µM | ≤ 5 µM | ≤ 5 µM | ≤ 5 µM | ≤ 5 µM | – | Cc1cc(-c2n[nH]c3ccc(NC(=O)C(c4ccsc4)N4CCCC4)cc23)ccc1N1CCOCC1 (stereo not drawn) [Example A59, N-(3-(3-methyl-4-morpholinophenyl)-1H-indazol-5-yl)-2-(pyrrolidin-1-yl)-2-(thiophen-3-yl)acetamide] |
| ≤ 5 µM | – | – | ≤ 5 µM | ≤ 5 µM | ≤ 5 µM | ≤ 5 µM | ≤ 5 µM | CN1CCc2cc(-c3n[nH]c4ccc(NC(=O)C(c5ccsc5)N5CCCC5)cc34)ccc21 (stereo not drawn) [Example A16, N-(3-(1-methylindolin-5-yl)-1H-indazol-5-yl)-2-(pyrrolidin-1-yl)-2-(thiophen-3-yl)acetamide] |
| ≤ 5 µM | – | – | ≤ 5 µM | ≤ 5 µM | ≤ 5 µM | ≤ 5 µM | 5 to 50 µM | O=C(Nc1ccc2[nH]nc(-c3ccc(N4CCOCC4)cc3)c2c1)C1CCCc2ccccc21 (stereo not drawn) [Example A22, N-(3-(4-morpholinophenyl)-1H-indazol-5-yl)-1,2,3,4-tetrahydronaphthalene-1-carboxamide] |
| ≤ 5 µM | ≤ 5 µM | 5 to 20 µM | ≤ 5 µM | – | ≤ 5 µM | ≤ 5 µM | ≤ 5 µM | CN1CCC(Oc2ccc(-c3n[nH]c4ccc(NC(=O)Nc5c(Cl)cccc5Cl)cc34)cc2)CC1 [Example A76, 1-(2,6-dichlorophenyl)-3-(3-(4-((1-methylpiperidin-4-yl)oxy)phenyl)-1H-indazol-5-yl)urea] |
| ≤ 5 µM | – | – | ≤ 5 µM | ≤ 5 µM | ≤ 5 µM | ≤ 5 µM | ≤ 5 µM | CN1CCN(c2ccc(-c3n[nH]c4ccc(NC(=O)C(c5ccsc5)N5CCCC5)cc34)cc2)CC1 (stereo not drawn) [Example A2, N-(3-(4-(4-methylpiperazin-1-yl)phenyl)-1H-indazol-5-yl)-2-(pyrrolidin-1-yl)-2-(thiophen-3-yl)acetamide] |
| ≤ 5 µM | ≤ 5 µM | ≤ 5 µM | ≤ 5 µM | – | ≤ 5 µM | ≤ 5 µM | – | O=C(Nc1ccc2[nH]nc(-c3ccc(NC4CCCC4)cc3)c2c1)C(c1ccsc1)N1CCCC1 (stereo not drawn) [Example A70, N-(3-(4-(cyclopentylamino)phenyl)-1H-indazol-5-yl)-2-(pyrrolidin-1-yl)-2-(thiophen-3-yl)acetamide] |
| ≤ 5 µM | – | – | ≤ 5 µM | ≤ 5 µM | ≤ 5 µM | ≤ 5 µM | ≤ 5 µM | COc1cc(-c2n[nH]c3ccc(C(=O)NC(c4ccccc4)C4CC4)cc23)ccc1OC1CCN(C)CC1 (stereo not drawn) [Example A19, N-(cyclopropyl(phenyl)methyl)-3-(3-methoxy-4-((1-methylpiperidin-4-yl)oxy)phenyl)-1H-indazole-5-carboxamide] |
| ≤ 5 µM | – | – | ≤ 5 µM | ≤ 5 µM | ≤ 5 µM | ≤ 5 µM | ≤ 5 µM | COc1cc(-c2n[nH]c3ccc(NC(=O)C(c4ccsc4)N4CCCC4)cc23)ccc1OC1CCNCC1 (stereo not drawn) [Example A8, N-(3-(3-methoxy-4-(piperidin-4-yloxy)phenyl)-1H-indazol-5-yl)-2-(pyrrolidin-1-yl)-2-(thiophen-3-yl)acetamide] |
